≈ marks a conversion by molar mass, not a printed value.
Legend:
BDF1 mouse splenocytes [1] = experiment: Suppression of the lipopolysaccharide (LPS) reaction of mouse splenocytes, 3H-thymidine uptake; assay type: cell-based; details: for Radioactivity cpm ± SD: 3H-thymidine
Experimental: To each well of a 96 well microtiter plate were added 5×10^5 BDF1 mouse splenocytes suspended in 0.1 ml of 10% fetal calf serum-fortifed RPMI 1640 medium (2 mM of sodium bicarbonate, 50 units/ml of penicillin, 50 μg/ml of streptomycin and 5×10^-5 M of 2-mercaptethanol were added) were added. To each well, 5 μg/ml of Con A as a mitogen and the compound (I-1), (I-2) or (I-3) of a pre-determined concentration were added so that a final volume of each well reached 0.2 ml. […] The splenocytes in the 96 well microtiter plate were cultivated at 37° C. for 48 hours in an incubator keeping the humidity 100%, carbon dioxide 5% and air 95%. The cells were pulse-labeledwith 3H-thymidine (18.5 Kbq/well) before 6 hours of harvest. After the cultivation, the cells were collected by a cell harvester and radioactivity taken in the cells was measured for being used as an indicator of a cell proliferation activity. Con A-free (--Con A) medium was used as a control.
By the same method as described in above 1-1 except that lipopolysaccharide (LPS, 10 μg/ml) was used in spite of concanavalin A, a suppression of the reaction was examined. LPS-free (--LPS) medium was used as a control.

P388 mouse leukemia cell = experiment: Cell proliferation inhibition (MTT), P388; assay type: cell-based
Experimental: (§1) To each well of a 96 well microtiter plate, the pre-determined number of various cell strains (0.1 ml) were added and pre-cultivated for a day under the same cultivation conditions as Experiment 1. To each well, 0.1 ml of the compound (I-1) was added so that the concentration was in the range of 0-10,000 ng/ml. After the cultivation for 3-4 days, 25 μl of 6 mg/ml MTT [3-(4,5-dimethylthiazol-2-yl)-2,5-diphenyltetrazolium bromide] (Sigma) solution was added to each well and the cells were cultivated at 37° C. for 4 hours under the same conditions as above. After the cultivation, 50 μl of 0.02 N hydrochloric acid solution of 20% sodium dodecyl sulfate was added to formazan generated and left at 37° C. for 24 hours for dissolving formazan. An absorption intensity (OD) of formazan generated in proportion to the number of living cells was measured with an immunoreader (InterMed) equipped with a 570 nm filter (The Journal of Immunological Method, No.65, p.55-63, 1983). The 50% inhibitory concentration of a cell proliferation (IC 50) was calculated from a correlation between a concentration of the compound (I-1) and absorption intensity.

BDF1 mouse splenocytes [2] = experiment: Suppression of the concanavalin A (Con A) mitogen reaction of mouse splenocytes, 3H-thymidine uptake; assay type: cell-based; details: for Radioactivity cpm ± SD: 3H-thymidine
Experimental: To each well of a 96 well microtiter plate were added 5×10^5 BDF1 mouse splenocytes suspended in 0.1 ml of 10% fetal calf serum-fortifed RPMI 1640 medium (2 mM of sodium bicarbonate, 50 units/ml of penicillin, 50 μg/ml of streptomycin and 5×10^-5 M of 2-mercaptethanol were added) were added. To each well, 5 μg/ml of Con A as a mitogen and the compound (I-1), (I-2) or (I-3) of a pre-determined concentration were added so that a final volume of each well reached 0.2 ml. Each compound of the present invention was dissolved in dimethylsulfoxide (DMSO) and diluted with the above RPMI 1640 medium to adjust the final concentration to 100 ng/ml or less. The splenocytes in the 96 well microtiter plate were cultivated at 37° C. for 48 hours in an incubator keeping the humidity 100%, carbon dioxide 5% and air 95%. The cells were pulse-labeledwith 3H-thymidine (18.5 Kbq/well) before 6 hours of harvest. After the cultivation, the cells were collected by a cell harvester and radioactivity taken in the cells was measured for being used as an indicator of a cell proliferation activity. Con A-free (--Con A) medium was used as a control.

[3] = tested on: CCFR-CEM human leukemia cell; experiment: Cell proliferation inhibition (MTT), CCFR-CEM; assay type: cell-based
Experimental: as §1

[4] = tested on: CCD-19Lu human normal pneumocyte; experiment: Cell proliferation inhibition (MTT), CCD-19Lu; assay type: cell-based
Experimental: as §1

[5] = Solubility (characterisation data); assay type: physicochemical
BDF1 mouse splenocytes [6] = experiment: Suppression of the concanavalin A (Con A) mitogen reaction of mouse splenocytes, 3H-thymidine uptake; assay type: cell-based; design: Radioactivity cpm ± SD: dose or concentration left out as unconfirmed
[7] = tested on: Lu-99 human large cell lung cancer; experiment: Cell proliferation inhibition (MTT), Lu-99; assay type: cell-based
Experimental: as §1

COc1cc(-c2ccc(O)cc2)c(OC)c(O)c1-c1ccc(OCC=C(C)C)c(O)c1 [Compound I-1, 3',6'-dimethoxy-4-(3-methyl-2-butenyloxy) -[1,1':4',1"] terphenyl-3,2',4"-triol]
Radioactivity cpm ± SD (BDF1 mouse splenocytes [1]; LPS 10 μg/ml, compound 0.98 ng/ml): 153396 ± 6123 cpm
Radioactivity cpm ± SD (BDF1 mouse splenocytes [1]; LPS 10 μg/ml, compound 3.91 ng/ml): 88405 ± 10394 cpm
Radioactivity cpm ± SD (BDF1 mouse splenocytes [1]; LPS 10 μg/ml, compound 15.6 ng/ml): 32548 ± 315 cpm
Radioactivity cpm ± SD (BDF1 mouse splenocytes [1]; LPS 10 μg/ml, compound 62.5 ng/ml): 16070 ± 944 cpm
Radioactivity cpm ± SD (BDF1 mouse splenocytes [1]; LPS 10 μg/ml, compound 250.0 ng/ml): 15046 ± 344 cpm
inhibition at 0.00098 µg/mL (BDF1 mouse splenocytes [1]; Mus musculus, Splenocyte, 48 h, LPS 10 μg/ml, compound 0.98 ng/ml): 0.3%
inhibition at 0.00391 µg/mL (BDF1 mouse splenocytes [1]; Mus musculus, Splenocyte, 48 h, LPS 10 μg/ml, compound 3.91 ng/ml): 43.4%
inhibition at 0.0156 µg/mL (BDF1 mouse splenocytes [1]; Mus musculus, Splenocyte, 48 h, LPS 10 μg/ml, compound 15.6 ng/ml): 80.4%
inhibition at 0.0625 µg/mL (BDF1 mouse splenocytes [1]; Mus musculus, Splenocyte, 48 h, LPS 10 μg/ml, compound 62.5 ng/ml): 91.3%
inhibition at 0.25 µg/mL (BDF1 mouse splenocytes [1]; Mus musculus, Splenocyte, 48 h, LPS 10 μg/ml, compound 250.0 ng/ml): 92%
IC50 (BDF1 mouse splenocytes [1]; Splenocyte, LPS reaction of mouse splenocytes): 4.5 ng/mL (≈ 10.7 nM)
Suppressive effect on the LPS reaction of mouse splenocytes (in words) (BDF1 mouse splenocytes [1]; depends on the compound concentration): potent suppressive effect
IC50 (P388 mouse leukemia cell; Mus musculus, P388, RPMI 1640, 5 × 10^2 cells/well, MTT, 3-4 days, read-out: IC50 (ng/ml) of cell proliferation): 12 ng/mL (≈ 28.4 nM)
Antiproliferative activity (in words) (P388 mouse leukemia cell; tumor cells (P388)): has an antiproliferative activity on the tumor cells
Radioactivity cpm ± SD (BDF1 mouse splenocytes [2]; Con A 5 μg/ml, compound 0.25 ng/ml, 48 h): 292470 ± 542 cpm
Radioactivity cpm ± SD (BDF1 mouse splenocytes [2]; Con A 5 μg/ml, compound 0.98 ng/ml, 48 h): 210046 ± 3288 cpm
Radioactivity cpm ± SD (BDF1 mouse splenocytes [2]; Con A 5 μg/ml, compound 3.91 ng/ml, 48 h): 56871 ± 1554 cpm
Radioactivity cpm ± SD (BDF1 mouse splenocytes [2]; Con A 5 μg/ml, compound 15.6 ng/ml, 48 h): 11366 ± 372 cpm
Radioactivity cpm ± SD (BDF1 mouse splenocytes [2]; Con A 5 μg/ml, compound 62.5 ng/ml, 48 h): 6411 ± 246 cpm
inhibition at 0.00025 µg/mL (BDF1 mouse splenocytes [2]; Mus musculus, Splenocyte, 48 h, Con A 5 μg/ml, compound 0.25 ng/ml): -5.6%
inhibition at 0.00098 µg/mL (BDF1 mouse splenocytes [2]; Mus musculus, Splenocyte, 48 h, Con A 5 μg/ml, compound 0.98 ng/ml): 24.5%
inhibition at 0.00391 µg/mL (BDF1 mouse splenocytes [2]; Mus musculus, Splenocyte, 48 h, Con A 5 μg/ml, compound 3.91 ng/ml): 80.5%
inhibition at 0.0156 µg/mL (BDF1 mouse splenocytes [2]; Mus musculus, Splenocyte, 48 h, Con A 5 μg/ml, compound 15.6 ng/ml): 97.1%
inhibition at 0.0625 µg/mL (BDF1 mouse splenocytes [2]; Mus musculus, Splenocyte, 48 h, Con A 5 μg/ml, compound 62.5 ng/ml): 98.9%
IC50 (BDF1 mouse splenocytes [2]; Splenocyte, Con A reaction of mouse splenocytes): 1.2 ng/mL (≈ 2.84 nM)
Suppression of the Con A reaction of mouse splenocytes (in words) (BDF1 mouse splenocytes [2]; depending on the compound concentration): significantly suppressed
IC50 ([3]; Homo sapiens, CCFR-CEM, RPMI 1640, 5 × 10^3 cells/well, MTT, 3-4 days, read-out: IC50 (ng/ml) of cell proliferation): 0.2 ng/mL (≈ 0.473 nM)
Antiproliferative activity (in words) ([3]; tumor cells (CCFR-CEM)): has an antiproliferative activity on the tumor cells
IC50 ([4]; Homo sapiens, CCD-19Lu, MEM, 2 × 10^4 cells/well, MTT, 3-4 days, read-out: IC50 (ng/ml) of cell proliferation): > 10000 ng/mL
Antiproliferative activity (in words) ([4]; normal pneumocyte CCD-19Lu): not on the normal pneumocyte CCD-19Lu
Solubility in acetone, ethyl acetate and chloroform ([5]; acetone, ethyl acetate, chloroform): soluble
Solubility in water ([5]; water): insoluble
Radioactivity cpm ± SD (BDF1 mouse splenocytes [6]): 6404 ± 403 cpm
inhibition at 0.25 µg/mL (BDF1 mouse splenocytes [6]; Mus musculus, Splenocyte, 48 h, Con A 5 μg/ml, compound 250.0 ng/ml): 98.9%
IC50 ([7]; Homo sapiens, Lu-99, RPMI 1640, 2 × 10^3 cells/well, MTT, 3-4 days, read-out: IC50 (ng/ml) of cell proliferation): 1 ng/mL (≈ 2.37 nM)
Antiproliferative activity (in words) ([7]; tumor cells (Lu-99)): has an antiproliferative activity on the tumor cells

From US6291231A, “Microorganism producing terphenyl compounds” (Shionogi & Co., Ltd., priority 1996, dated 2001)
